Results: article PMC9143228, “Evaluation of 3-Borono-L-Phenylalanine as a Water-Soluble Boron Neutron Capture Therapy Agent” (Pharmaceutics, 2022)
Values after ≈ are worked out from the molar mass of the structure shown. One block for each compound: values may come before it.

How the values were obtained:
[1] = Water solubility (boron in supernatant by ICP-MS); type: physicochemical; settings: for solubility at 24 h: 25 °C, 24 h stirring, n = 6
Experimental: 3-BPA or 4-BPA (40 mg) were suspended in 200 μL water and stirred at 25 °C for 24 h. After stirring, the solution was centrifuged at 5000 rpm for 10 min, and the amount of boron in the supernatant solution was measured by 8800 triple quadrupole ICP-MS (Agilent, Santa Clara, CA, USA). The experiment was repeated twice with n = 3.

[2] = Log p measurement (water/1-octanol, ICP-MS); type: physicochemical; settings: v/v); water:1-octanol 1:1, n = 12
Experimental: After dissolving 3-BPA or 4-BPA in water (0.2 mg/mL), 1-octanol was added to compose a water:1-octanol (1:1, v/v) mixture. The mixture was shaken for 5 min and then centrifuged at 5000 rpm for 10 min. The amount of boron was measured for each liquid phase using ICP-MS, and log p was calculated from the concentration ratio of each liquid phase. The experiment was repeated twice with n = 6.

[3] = tested on: T3M-4 human pancreatic adenocarcinoma cells; assay: Cellular uptake study, T3M-4; type: cell-based; settings: for Boron uptake, specific (LAT1-specific): difference non-inhibitor minus inhibitor; for Boron uptake, non-inhibitor: no inhibitor, mixed with fructose; for Boron uptake, inhibitor: with 10 µM LAT1 inhibitor JPH203
Experimental: (§1) B16F10 mouse melanoma cells (RCB2630) and T3M-4 human pancreatic adenocarcinoma cells (RCB1021) were provided by the RIKEN BRC (Ibaraki, Japan). U-87MG human glioblastoma cells were provided by Prof. Magata (Hamamatsu University School of Medicine, Hamamatsu, Japan), and A549 human lung carcinoma cells (CCL-185) were obtained from ATCC (Manassas, VA, USA). Cells were cultured in growth medium RPMI 1640 for B16F10 and T3M-4 and DMEM for A549 and U-87MG, containing 10% fetal bovine serum at 37 °C in a humidified atmosphere of 5% CO2.
(§2) Cells were cultured in six-well plates 2 days before the experiment. After medium removal, cells were washed twice with choline buffer (140 mM choline chloride, 2 mM potassium chloride, 1 mM magnesium chloride, 1 mM calcium chloride, 1 M Tris) and preincubated with 900 µL of choline buffer containing/not containing 10 µM of the LAT1-specific inhibitor JPH203 [32, 33] (Selleck Biotech, Tokyo, Japan) at 37 °C for 5 min. After incubation, 100 µL of 3-BPA or 4-BPA mixed with fructose (0.5 mg/mL, 0.11 w/v% Fru, pH 7.4) was added and incubated at 37 °C for 1, 5, and 30 min. After washing three times with choline buffer, 400 µL of 0.2 M NaOH was added to lyse the cells. After the amount of cell protein was measured using the BCA method (Thermo Fisher Scientific, Tokyo, Japan) and the mixture was ashed with nitric acid, the amount of boron was measured using ICP-MS. The accumulation rate was calculated as % dose/mg protein from the quantified dose of boron in added 3-BPA and 4-BPA, respectively (n = 3).

[4] = tested on: A549 human lung carcinoma cells; assay: Cellular uptake study, A549; type: cell-based; settings: for Boron uptake, specific (LAT1-specific): difference non-inhibitor minus inhibitor; for Boron uptake, non-inhibitor: no inhibitor, mixed with fructose; for Boron uptake, inhibitor: with 10 µM LAT1 inhibitor JPH203
Experimental: as §1, §2

[5] = tested on: B16F10 mouse melanoma cells; assay: Cellular uptake study, B16F10; type: cell-based; settings: for Boron uptake, specific (LAT1-specific): difference non-inhibitor minus inhibitor; for Boron uptake, non-inhibitor: no inhibitor, mixed with fructose; for Boron uptake, inhibitor: with 10 µM LAT1 inhibitor JPH203
Experimental: as §1, §2

[6] = tested on: U-87MG human glioblastoma cells; assay: Cellular uptake study, U-87MG; type: cell-based; settings: for Boron uptake, specific (LAT1-specific): difference non-inhibitor minus inhibitor; for Boron uptake, non-inhibitor: no inhibitor, mixed with fructose; for Boron uptake, inhibitor: with 10 µM LAT1 inhibitor JPH203
Experimental: as §1, §2

[7] = design: method as in doi:10.1007/978-1-4757-9567-7_10; settings: cited from earlier work
[8] = cited from earlier work

solubility at 24 h ([1]; in water): 0.72 ± 0.13 mg/mL (≈ 3.44 mM)
logP [2]: -1.8 ± 0.04
SMILES: N[C@@H](Cc1ccc(B(O)O)cc1)C(=O)O [4-BPA, 4-borono-L-phenylalanine]
Boron uptake, specific (LAT1-specific) ([3]; T3M-4, 1 min): 0.56 ± 0.11 % dose/mg protein
Boron uptake, non-inhibitor ([3]; T3M-4, 1 min): 0.82 ± 0.11 % dose/mg protein
Boron uptake, inhibitor ([3]; T3M-4, 1 min): 0.26 ± 0.16 % dose/mg protein
Boron uptake, specific (LAT1-specific) ([3]; T3M-4, 5 min): 3.10 ± 0.39 % dose/mg protein
Boron uptake, non-inhibitor ([3]; T3M-4, 5 min): 3.28 ± 0.39 % dose/mg protein
Boron uptake, inhibitor ([3]; T3M-4, 5 min): 0.18 ± 0.02 % dose/mg protein
Boron uptake, specific (LAT1-specific) ([3]; T3M-4, 30 min): 5.19 ± 0.45 % dose/mg protein
Boron uptake, non-inhibitor ([3]; T3M-4, 30 min): 5.40 ± 0.45 % dose/mg protein
Boron uptake, inhibitor ([3]; T3M-4, 30 min): 0.20 ± 0.01 % dose/mg protein
Boron uptake, specific (LAT1-specific) ([4]; A549, 1 min): 0.13 ± 0.04 % dose/mg protein
Boron uptake, non-inhibitor ([4]; A549, 1 min): 0.14 ± 0.04 % dose/mg protein
Boron uptake, inhibitor ([4]; A549, 1 min): 0.01 ± 0.01 % dose/mg protein
Boron uptake, specific (LAT1-specific) ([4]; A549, 5 min): 0.66 ± 0.08 % dose/mg protein
Boron uptake, non-inhibitor ([4]; A549, 5 min): 0.66 ± 0.08 % dose/mg protein
Boron uptake, inhibitor ([4]; A549, 5 min): 0.00 ± 0.01 % dose/mg protein
Boron uptake, specific (LAT1-specific) ([4]; A549, 30 min): 3.75 ± 0.20 % dose/mg protein
Boron uptake, non-inhibitor ([4]; A549, 30 min): 3.92 ± 0.20 % dose/mg protein
Boron uptake, inhibitor ([4]; A549, 30 min): 0.17 ± 0.09 % dose/mg protein
Boron uptake, specific (LAT1-specific) ([5]; B16F10, 1 min): 0.03 ± 0.01 % dose/mg protein
Boron uptake, non-inhibitor ([5]; B16F10, 1 min): 0.03 ± 0.01 % dose/mg protein
Boron uptake, inhibitor ([5]; B16F10, 1 min): 0.00 ± 0.01 % dose/mg protein
Boron uptake, specific (LAT1-specific) ([5]; B16F10, 5 min): 0.48 ± 0.01 % dose/mg protein
Boron uptake, non-inhibitor ([5]; B16F10, 5 min): 0.62 ± 0.01 % dose/mg protein
Boron uptake, inhibitor ([5]; B16F10, 5 min): 0.14 ± 0.03 % dose/mg protein
Boron uptake, specific (LAT1-specific) ([5]; B16F10, 30 min): 0.56 ± 0.06 % dose/mg protein
Boron uptake, non-inhibitor ([5]; B16F10, 30 min): 0.57 ± 0.06 % dose/mg protein
Boron uptake, inhibitor ([5]; B16F10, 30 min): 0.01 ± 0.01 % dose/mg protein
Boron uptake, specific (LAT1-specific) ([6]; 1 min): 0.05 ± 0.02 % dose/mg protein
Boron uptake, non-inhibitor ([6]; 1 min): 0.13 ± 0.02 % dose/mg protein
Boron uptake, inhibitor ([6]; 1 min): 0.08 ± 0.01 % dose/mg protein
Boron uptake, specific (LAT1-specific) ([6]; 5 min): 0.06 ± 0.02 % dose/mg protein
Boron uptake, non-inhibitor ([6]; 5 min): 0.20 ± 0.02 % dose/mg protein
Boron uptake, inhibitor ([6]; 5 min): 0.14 ± 0.02 % dose/mg protein
Boron uptake, specific (LAT1-specific) ([6]; 30 min): 0.31 ± 0.03 % dose/mg protein
Boron uptake, non-inhibitor ([6]; 30 min): 0.48 ± 0.03 % dose/mg protein
Boron uptake, inhibitor ([6]; 30 min): 0.17 ± 0.01 % dose/mg protein
pKa1 [7]: 2.35
pKa2 [7]: 8.45
pKa3 [7]: 9.67
Water solubility under neutral conditions ([8]; neutral conditions, ref Borofalan interview form): 0.6 to 0.7 mg/mL

solubility ([1]; in water, 25°C, n = 3, Table S8, read-out: Solubility (g/L) (in water, 25°C, n = 3)): 15.3 ± 0.1 g/L (≈ 92.6 mM)
SMILES: N[C@@H](Cc1ccccc1)C(=O)O [phenylalanine]
water solubility [8]: 12.0 mg/mL (≈ 72.6 mM)

solubility at 24 h ([1]; in water): 125 mg/mL (≈ 598 mM)
Water solubility of 3-BPA relative to 4-BPA ([1]; times higher than 4-BPA): more than 100 times
logP [2]: -1.59
SMILES: N[C@@H](Cc1cccc(B(O)O)c1)C(=O)O [3-BPA, 3-borono-L-phenylalanine]
Boron uptake, specific (LAT1-specific) ([3]; T3M-4, 1 min): 0.69 ± 0.09 % dose/mg protein
Boron uptake, non-inhibitor ([3]; T3M-4, 1 min): 0.78 ± 0.09 % dose/mg protein
Boron uptake, inhibitor ([3]; T3M-4, 1 min): 0.09 ± 0.08 % dose/mg protein
Boron uptake, specific (LAT1-specific) ([3]; T3M-4, 5 min): 3.55 ± 0.40 % dose/mg protein
Boron uptake, non-inhibitor ([3]; T3M-4, 5 min): 3.55 ± 0.40 % dose/mg protein
Boron uptake, inhibitor ([3]; T3M-4, 5 min): 0.09 ± 0.07 % dose/mg protein
Boron uptake, specific (LAT1-specific) ([3]; T3M-4, 30 min): 5.41 ± 0.63 % dose/mg protein
Boron uptake, non-inhibitor ([3]; T3M-4, 30 min): 5.62 ± 0.63 % dose/mg protein
Boron uptake, inhibitor ([3]; T3M-4, 30 min): 0.21 ± 0.06 % dose/mg protein
Boron uptake, specific (LAT1-specific) ([4]; A549, 1 min): 0.30 ± 0.12 % dose/mg protein
Boron uptake, non-inhibitor ([4]; A549, 1 min): 0.48 ± 0.12 % dose/mg protein
Boron uptake, inhibitor ([4]; A549, 1 min): 0.18 ± 0.03 % dose/mg protein
Boron uptake, specific (LAT1-specific) ([4]; A549, 5 min): 0.94 ± 0.40 % dose/mg protein
Boron uptake, non-inhibitor ([4]; A549, 5 min): 1.22 ± 0.13 % dose/mg protein
Boron uptake, inhibitor ([4]; A549, 5 min): 0.29 ± 0.02 % dose/mg protein
Boron uptake, specific (LAT1-specific) ([4]; A549, 30 min): 3.60 ± 0.24 % dose/mg protein
Boron uptake, non-inhibitor ([4]; A549, 30 min): 4.02 ± 0.24 % dose/mg protein
Boron uptake, inhibitor ([4]; A549, 30 min): 0.42 ± 0.01 % dose/mg protein
Boron uptake, specific (LAT1-specific) ([5]; B16F10, 1 min): 0.03 ± 0.03 % dose/mg protein
Boron uptake, non-inhibitor ([5]; B16F10, 1 min): 0.23 ± 0.03 % dose/mg protein
Boron uptake, inhibitor ([5]; B16F10, 1 min): 0.21 ± 0.06 % dose/mg protein
Boron uptake, specific (LAT1-specific) ([5]; B16F10, 5 min): 0.42 ± 0.11 % dose/mg protein
Boron uptake, non-inhibitor ([5]; B16F10, 5 min): 0.59 ± 0.11 % dose/mg protein
Boron uptake, inhibitor ([5]; B16F10, 5 min): 0.17 ± 0.11 % dose/mg protein
Boron uptake, specific (LAT1-specific) ([5]; B16F10, 30 min): 0.56 ± 0.07 % dose/mg protein
Boron uptake, non-inhibitor ([5]; B16F10, 30 min): 0.80 ± 0.07 % dose/mg protein
Boron uptake, inhibitor ([5]; B16F10, 30 min): 0.24 ± 0.01 % dose/mg protein
Boron uptake, specific (LAT1-specific) ([6]; 1 min): 0.02 ± 0.04 % dose/mg protein
Boron uptake, non-inhibitor ([6]; 1 min): 0.33 ± 0.04 % dose/mg protein
Boron uptake, inhibitor ([6]; 1 min): 0.31 ± 0.05 % dose/mg protein
Boron uptake, specific (LAT1-specific) ([6]; 5 min): 0.15 ± 0.04 % dose/mg protein
Boron uptake, non-inhibitor ([6]; 5 min): 0.28 ± 0.04 % dose/mg protein
Boron uptake, inhibitor ([6]; 5 min): 0.14 ± 0.05 % dose/mg protein
Boron uptake, specific (LAT1-specific) ([6]; 30 min): 0.21 ± 0.05 % dose/mg protein
Boron uptake, non-inhibitor ([6]; 30 min): 0.45 ± 0.05 % dose/mg protein
Boron uptake, inhibitor ([6]; 30 min): 0.24 ± 0.04 % dose/mg protein
pKa1 [7]: 2.26
pKa2 [7]: 8.46
pKa3 [7]: 9.95

SMILES: NC(Cc1cccc(O)c1)C(=O)O (racemic) [meta-Tyrosine, DL-meta-tyrosine]
Solubility (g/L) (in water, 25°C, n = 3) ([1]; in water, 25°C, n = 3, Table S8): 9.8 ± 0.1 g/L (≈ 54.1 mM)
Water solubility of DL-meta-tyrosine relative to DL-tyrosine ([1]; times higher than DL-tyrosine): more than 25 times
